What was measured:
Format in all cases: in vivo
cotton, variety D&PL 555 [1] = assay: % terminal control of cotton plants, field trial; settings: first open boll application, 3 replicates
Procedure: (§1) The trial was performed on cotton, variety D&PL 555. The formulated test compounds were diluted to the appropriate concentrations with water to which a crop oil concentrate (1% to 2% v/v) or a non-ionic surfactant (0.25% v/v) was added. The application of the test composition as a cotton plant growth regulator was performed using pressurized, over-the-top spray equipment consisting of a research scale boom sprayer. Deposit of the test composition was primarily to the top of the cotton plants, minimizing spray deposition to lower branches, leaves and fruit. The finished spray volume was 10 gallons per acre, with sprayer nozzle design, orientation and nozzle pressures chosen to prevent spray drift. Applications were made at first sign of cotton boll opening and at 15%, 20% and 40% open bolls.
(§2) The experimental design used randomized plots with 1 to 4 treatment rates of test composition and from 1 to 10 replications depending on the test (sees tables below). The size of each experimental plot was about 15 m^2. Testing was performed in Texas, North Carolina, Mississippi and Georgia.
(§3) Percent desiccation, percent defoliation, percent terminal control and percent open bolls were evaluated at 7 and 14 days after application (DAA) of the test composition. Inspection of cotton plants for insect control of armyworm larvae was performed at 2 DAA and insect damage to bolls was performed at the time of harvest
Terminal control refers to crop response to the top-most vertical bud and shoots growth. Percent terminal control estimates the proportion of these upper-most growth structures desiccated per 100 cotton plants. Fifty cotton plants in two representative locations within a treatment plot were chosen to determine percent control. Each terminal of the 50 plants in the 2 locations was evaluated, and the total number desiccated per 100 plants was recorded as percent terminal control.
(§4) The results, shown as the mean of the indicated number of replications, were compared with results observed in the same trials with an untreated control.

cotton, variety D&PL 555 [2] = assay: % open bolls of cotton plants, field trial; settings: 14 DAA
Procedure: as §1, §2, §3
Open bolls refers to the number of bolls which have opened per 100 cotton plants. Fifty cotton plants in two representative locations within a treatment plot were chosen to examine for open bolls. The percent of open bolls was calculated by dividing the number of open bolls by the total number of bolls on the plants multiplied by 100.
as §4

[3] = tested on: Brown Stinkbug (Euschistus servus); assay: % bolls damaged by brown stinkbug at harvest; settings: 15% open boll application, 0.006 lb ai/a, 1 replicate
Procedure: as §1, with “bolls. […]” for “bolls.”
Percent desiccation, percent defoliation, percent terminal control and percent open bolls were evaluated at 7 and 14 days after application (DAA) of the test composition. […]
Bollworm (Heliothis zea) and stinkbug (Euschistus servus) insect control was measured by examining the bolls of 100 cotton plants, 50 cotton plants in two representative locations with in the treatment plot, for injury caused by either bollworms or by stinkbugs. The percent damage was calculated by dividing the number of damaged bolls by the total number of bolls on the plants multiplied by 100. […]

cotton, variety D&PL 555 [4] = assay: % defoliation of cotton plants, field trial
Procedure: as §1, §2, §3
Defoliation refers to removal of leaves. Percent defoliation rating approximates the proportion of leaves of all sizes shed per 100 leaves present prior to application of the cotton growth regulator compound. An evaluation of the foliage in the untreated check plots was first undertaken. Then the test plots were individually evaluated. The percent of leaves dropped by the plants in the treated plot was determined using observations within the plot and comparisons to foliage in the untreated plot.
as §4

## CCOC(=O)C(Cl)Cc1cc(-n2nc(C)n(C(F)F)c2=O)c(F)cc1Cl (centres unmarked) [carfentrazone-ethyl, ethyl 2-chloro-3-[2-chloro-5-(4-difluoromethyl-3-methyl-5-oxo-4,5-dihydro-[1,2,4]-triazol-1-yl)-4-fluorophenyl]propionate]
cotton, variety D&PL 555 [1]; 0.004 lb ai/a, 14 DAA
  % Terminal Control: 58%
cotton, variety D&PL 555 [1]; 0.006 lb ai/a, 7 DAA
  % Terminal Control: 47%
cotton, variety D&PL 555 [1]; 0.006 lb ai/a, 14 DAA
  % Terminal Control: 59%
cotton, variety D&PL 555 [1]; 0.008 lb ai/a, 7 DAA
  % Terminal Control: 50%
cotton, variety D&PL 555 [1]; 0.008 lb ai/a, 14 DAA
  % Terminal Control: 58%
cotton, variety D&PL 555 [2]; 15% open boll application, 0.004 lb ai/a, 10 replicates
  % Open Bolls: 59%
cotton, variety D&PL 555 [2]; 15% open boll application, 0.006 lb ai/a, 10 replicates
  % Open Bolls: 61%
cotton, variety D&PL 555 [2]; 15% open boll application, 0.008 lb ai/a, 10 replicates
  % Open Bolls: 64%
cotton, variety D&PL 555 [2]; 15% open boll application, 0.01 lb ai/a, 10 replicates
  % Open Bolls: 63%
cotton, variety D&PL 555 [2]; 20% open boll application, 0.002 lb ai/a, 3 replicates
  % Open Bolls: 62%
cotton, variety D&PL 555 [2]; 20% open boll application, 0.004 lb ai/a, 3 replicates
  % Open Bolls: 62%
cotton, variety D&PL 555 [2]; 20% open boll application, 0.006 lb ai/a, 3 replicates
  % Open Bolls: 67%
cotton, variety D&PL 555 [2]; 20% open boll application, 0.008 lb ai/a, 3 replicates
  % Open Bolls: 62%
cotton, variety D&PL 555 [2]; first open boll application, 0.002 lb ai/a, 3 replicates
  % Open Bolls: 61%
cotton, variety D&PL 555 [2]; first open boll application, 0.004 lb ai/a, 3 replicates
  % Open Bolls: 58%
cotton, variety D&PL 555 [2]; first open boll application, 0.006 lb ai/a, 3 replicates
  % Open Bolls: 63%
cotton, variety D&PL 555 [2]; first open boll application, 0.008 lb ai/a, 3 replicates
  % Open Bolls: 68%
[3]
  % Bolls Damaged by Brown Stinkbug (Euschistus servus): 2.25%
cotton, variety D&PL 555 [4]; 15% open boll application, 0.004 lb ai/a, 14 DAA, 10 replicates
  % Defoliation: 28%
cotton, variety D&PL 555 [4]; 15% open boll application, 0.006 lb ai/a, 14 DAA, 10 replicates
  % Defoliation: 33%
cotton, variety D&PL 555 [4]; 15% open boll application, 0.008 lb ai/a, 14 DAA, 10 replicates
  % Defoliation: 39%
cotton, variety D&PL 555 [4]; 15% open boll application, 0.01 lb ai/a, 14 DAA, 10 replicates
  % Defoliation: 41%
cotton, variety D&PL 555 [4]; 20% open boll application, 0.002 lb ai/a, 7 DAA, 3 replicates
  % Defoliation: 9%
cotton, variety D&PL 555 [4]; 20% open boll application, 0.002 lb ai/a, 14 DAA, 3 replicates
  % Defoliation: 17%
cotton, variety D&PL 555 [4]; 20% open boll application, 0.004 lb ai/a, 7 DAA, 3 replicates
  % Defoliation: 25%
cotton, variety D&PL 555 [4]; 20% open boll application, 0.004 lb ai/a, 14 DAA, 3 replicates
  % Defoliation: 38%
cotton, variety D&PL 555 [4]; 20% open boll application, 0.006 lb ai/a, 7 DAA, 3 replicates
  % Defoliation: 22%
cotton, variety D&PL 555 [4]; 20% open boll application, 0.006 lb ai/a, 14 DAA, 3 replicates
  % Defoliation: 34%
cotton, variety D&PL 555 [4]; 20% open boll application, 0.008 lb ai/a, 7 DAA, 3 replicates
  % Defoliation: 24%
cotton, variety D&PL 555 [4]; 20% open boll application, 0.008 lb ai/a, 14 DAA, 3 replicates
  % Defoliation: 36%
cotton, variety D&PL 555 [4]; 40% open boll application, 0.004 lb ai/a, 7 DAA, 1 replicate
  % Defoliation: 61%
cotton, variety D&PL 555 [4]; 40% open boll application, 0.006 lb ai/a, 7 DAA, 1 replicate
  % Defoliation: 58%
cotton, variety D&PL 555 [4]; 40% open boll application, 0.008 lb ai/a, 7 DAA, 1 replicate
  % Defoliation: 67%
cotton, variety D&PL 555 [4]; first open boll application, 0.002 lb ai/a, 7 DAA, 4 replicates
  % Defoliation: 6%
cotton, variety D&PL 555 [4]; first open boll application, 0.002 lb ai/a, 14 DAA, 4 replicates
  % Defoliation: 15%
cotton, variety D&PL 555 [4]; first open boll application, 0.004 lb ai/a, 7 DAA, 4 replicates
  % Defoliation: 12%
cotton, variety D&PL 555 [4]; first open boll application, 0.004 lb ai/a, 14 DAA, 4 replicates
  % Defoliation: 25%
cotton, variety D&PL 555 [4]; first open boll application, 0.006 lb ai/a, 7 DAA, 4 replicates
  % Defoliation: 13%
cotton, variety D&PL 555 [4]; first open boll application, 0.006 lb ai/a, 14 DAA, 4 replicates
  % Defoliation: 28%
cotton, variety D&PL 555 [4]; first open boll application, 0.008 lb ai/a, 7 DAA, 4 replicates
  % Defoliation: 12%
cotton, variety D&PL 555 [4]; first open boll application, 0.008 lb ai/a, 14 DAA, 4 replicates
  % Defoliation: 23%

— patent US20090062122A1, “Cotton Growth Regulator” (FMC Corporation, priority 2006, published 2009)
